Assay results published in publication PMC7736581, “Activation of the IRE1 RNase through remodeling of the kinase front pocket by ATP-competitive ligands” (Nature Communications, 2020).

Assays:
Assay in all cases: biochemical
Design in all cases: Invitrogen kinase panel: Z'Lyte activity (ATP at Km) or LanthaScreen competitive ATP-site binding, percent inhibition
GRK5 = GRK5 (Homo sapiens, UniProt P34947)
CK2_alpha1 = molecular target: T1, CK2_alpha1 (Homo sapiens, UniProt P68400)
T1 construct: gene CSNK2A1

EGFR = EGFR (Homo sapiens, UniProt P00533)
MYLK(smMLCK) = molecular target: T2, MYLK(smMLCK) (Homo sapiens, UniProt Q15746)
T2 construct: smMLCK

IRAK1 = IRAK1 (Homo sapiens, UniProt P51617)
Bmx = Bmx (Homo sapiens, UniProt P51813)
CDK8/cyclinC = CDK8/cyclinC (Homo sapiens, UniProt P49336)
CaMKI = molecular target: T3, CaMKI (Homo sapiens, UniProt Q14012)
T3 construct: gene CAMK1

MKK6 = molecular target: T4, MKK6 (Homo sapiens, UniProt P52564)
T4 construct: gene MAP2K6

LRRK2 = LRRK2 (Homo sapiens, UniProt Q5S007)
ERN1 = ERN1 (Homo sapiens, UniProt O75460)
MAPKAPK2 = MAPKAPK2 (Homo sapiens, UniProt P49137)
MEKK2 = molecular target: T5, MEKK2 (Homo sapiens, UniProt Q9Y2U5)
T5 construct: gene MAP3K2

NEK4 = NEK4 (Homo sapiens, UniProt P51957)
MST1 = molecular target: T6, MST1 (Homo sapiens, UniProt Q13043)
T6 construct: gene STK4

ACVR2B = ACVR2B (Homo sapiens, UniProt Q13705)
ErbB2 = ErbB2 (Homo sapiens, UniProt P04626)
KHS1 = molecular target: T7, KHS1 (Homo sapiens, UniProt Q9Y4K4)
T7 construct: gene MAP4K5

NEK9 = NEK9 (Homo sapiens, UniProt Q8TD19)
STK16 = STK16 (Homo sapiens, UniProt O75716)
FGFR4 = FGFR4 (Homo sapiens, UniProt P22455)
AKT2 = AKT2 (Homo sapiens, UniProt P31751)
SIK2 = SIK2 (Homo sapiens, UniProt Q9H0K1)
MYLK3(caMLCK) = molecular target: T8, MYLK3(caMLCK) (Homo sapiens, UniProt Q32MK0)
T8 construct: caMLCK

PAK4 = PAK4 (Homo sapiens, UniProt O96013)

T7 sequence (Q9Y4K4 whole entry): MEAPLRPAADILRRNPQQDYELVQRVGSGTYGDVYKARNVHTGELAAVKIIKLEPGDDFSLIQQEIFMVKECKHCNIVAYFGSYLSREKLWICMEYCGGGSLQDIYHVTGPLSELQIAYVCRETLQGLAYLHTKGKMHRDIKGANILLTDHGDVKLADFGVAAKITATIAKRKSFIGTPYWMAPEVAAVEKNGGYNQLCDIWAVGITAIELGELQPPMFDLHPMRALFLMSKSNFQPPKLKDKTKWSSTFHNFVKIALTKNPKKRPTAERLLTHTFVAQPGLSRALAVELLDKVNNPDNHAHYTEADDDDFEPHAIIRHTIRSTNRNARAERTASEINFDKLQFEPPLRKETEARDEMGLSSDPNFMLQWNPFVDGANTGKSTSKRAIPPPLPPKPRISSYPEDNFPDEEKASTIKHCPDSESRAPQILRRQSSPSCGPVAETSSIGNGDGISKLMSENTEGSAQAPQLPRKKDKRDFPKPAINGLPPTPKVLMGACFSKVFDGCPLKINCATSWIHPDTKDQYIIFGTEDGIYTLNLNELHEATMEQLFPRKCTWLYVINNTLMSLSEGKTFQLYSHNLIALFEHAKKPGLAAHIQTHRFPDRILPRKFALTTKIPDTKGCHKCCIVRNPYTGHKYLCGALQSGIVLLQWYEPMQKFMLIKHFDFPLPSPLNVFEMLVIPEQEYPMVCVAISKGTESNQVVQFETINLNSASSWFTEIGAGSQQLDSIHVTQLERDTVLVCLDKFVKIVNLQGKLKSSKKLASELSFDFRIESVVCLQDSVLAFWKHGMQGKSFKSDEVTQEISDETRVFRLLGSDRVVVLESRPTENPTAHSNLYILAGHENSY
T4 sequence (P52564 whole entry): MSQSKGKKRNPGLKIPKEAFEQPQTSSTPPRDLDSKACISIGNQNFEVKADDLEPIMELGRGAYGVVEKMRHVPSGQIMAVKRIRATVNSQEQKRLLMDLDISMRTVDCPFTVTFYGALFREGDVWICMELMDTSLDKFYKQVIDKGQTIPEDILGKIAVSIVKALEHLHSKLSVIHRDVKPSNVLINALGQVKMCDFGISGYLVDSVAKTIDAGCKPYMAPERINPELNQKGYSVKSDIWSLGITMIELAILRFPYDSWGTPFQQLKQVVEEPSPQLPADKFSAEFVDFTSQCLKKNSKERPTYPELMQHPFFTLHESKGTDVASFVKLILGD
FGFR4, sequence (P22455 whole entry): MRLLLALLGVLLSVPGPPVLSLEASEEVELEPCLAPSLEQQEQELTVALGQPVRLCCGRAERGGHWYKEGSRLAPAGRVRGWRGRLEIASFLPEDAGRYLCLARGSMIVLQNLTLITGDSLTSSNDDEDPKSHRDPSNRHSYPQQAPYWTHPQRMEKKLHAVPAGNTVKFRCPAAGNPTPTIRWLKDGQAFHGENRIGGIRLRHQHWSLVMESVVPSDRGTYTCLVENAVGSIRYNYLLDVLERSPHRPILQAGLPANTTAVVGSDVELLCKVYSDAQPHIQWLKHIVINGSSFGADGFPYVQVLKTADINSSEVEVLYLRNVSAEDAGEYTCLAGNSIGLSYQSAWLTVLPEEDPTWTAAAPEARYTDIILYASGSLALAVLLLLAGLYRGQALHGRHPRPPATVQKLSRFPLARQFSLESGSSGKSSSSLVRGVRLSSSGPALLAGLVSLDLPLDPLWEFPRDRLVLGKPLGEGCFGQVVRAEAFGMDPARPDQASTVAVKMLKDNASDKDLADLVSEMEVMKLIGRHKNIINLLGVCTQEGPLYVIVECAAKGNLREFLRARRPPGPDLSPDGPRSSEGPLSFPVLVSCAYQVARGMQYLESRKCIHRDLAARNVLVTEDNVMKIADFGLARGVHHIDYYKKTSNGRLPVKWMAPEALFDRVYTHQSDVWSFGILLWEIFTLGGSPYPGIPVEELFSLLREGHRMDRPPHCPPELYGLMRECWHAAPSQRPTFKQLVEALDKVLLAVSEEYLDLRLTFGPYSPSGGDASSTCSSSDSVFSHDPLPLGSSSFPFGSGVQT
NEK9, sequence (Q8TD19 whole entry): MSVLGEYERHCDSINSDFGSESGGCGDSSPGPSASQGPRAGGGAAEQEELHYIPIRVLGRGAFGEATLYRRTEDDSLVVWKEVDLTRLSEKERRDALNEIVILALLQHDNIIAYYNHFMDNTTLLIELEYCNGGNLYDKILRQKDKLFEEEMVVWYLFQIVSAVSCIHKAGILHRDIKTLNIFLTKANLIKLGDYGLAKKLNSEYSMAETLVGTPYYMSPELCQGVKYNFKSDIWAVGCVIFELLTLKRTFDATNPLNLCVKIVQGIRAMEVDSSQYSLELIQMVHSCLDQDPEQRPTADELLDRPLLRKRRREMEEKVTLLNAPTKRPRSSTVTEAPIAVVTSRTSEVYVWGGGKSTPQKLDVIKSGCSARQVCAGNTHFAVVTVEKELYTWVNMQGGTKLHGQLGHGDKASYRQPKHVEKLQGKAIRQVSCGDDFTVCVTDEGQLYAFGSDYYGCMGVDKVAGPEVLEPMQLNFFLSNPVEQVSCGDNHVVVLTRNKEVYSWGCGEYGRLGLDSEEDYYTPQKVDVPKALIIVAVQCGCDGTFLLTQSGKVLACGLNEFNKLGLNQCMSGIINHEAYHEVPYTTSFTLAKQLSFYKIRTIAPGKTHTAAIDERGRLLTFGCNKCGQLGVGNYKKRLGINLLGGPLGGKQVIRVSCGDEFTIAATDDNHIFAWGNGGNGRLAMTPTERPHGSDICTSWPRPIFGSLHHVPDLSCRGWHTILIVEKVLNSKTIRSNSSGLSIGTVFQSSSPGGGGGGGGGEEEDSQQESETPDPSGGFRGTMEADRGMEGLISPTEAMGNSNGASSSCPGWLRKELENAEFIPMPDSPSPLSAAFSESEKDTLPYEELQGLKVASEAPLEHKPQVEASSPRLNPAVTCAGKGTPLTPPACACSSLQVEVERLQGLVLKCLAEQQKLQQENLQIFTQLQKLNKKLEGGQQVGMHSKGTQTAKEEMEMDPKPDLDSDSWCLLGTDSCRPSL
T3 sequence (Q14012 whole entry): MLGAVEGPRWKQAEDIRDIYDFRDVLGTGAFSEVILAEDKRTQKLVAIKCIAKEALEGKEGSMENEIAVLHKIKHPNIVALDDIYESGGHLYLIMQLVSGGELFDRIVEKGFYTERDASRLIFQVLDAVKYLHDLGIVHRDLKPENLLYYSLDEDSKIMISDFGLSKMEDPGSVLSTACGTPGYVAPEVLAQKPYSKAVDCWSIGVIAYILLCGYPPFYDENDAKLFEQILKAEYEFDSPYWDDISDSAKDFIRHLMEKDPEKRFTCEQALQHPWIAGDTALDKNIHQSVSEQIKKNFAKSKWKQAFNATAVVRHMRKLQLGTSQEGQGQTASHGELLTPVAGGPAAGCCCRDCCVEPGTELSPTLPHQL
NEK4, sequence (P51957 whole entry): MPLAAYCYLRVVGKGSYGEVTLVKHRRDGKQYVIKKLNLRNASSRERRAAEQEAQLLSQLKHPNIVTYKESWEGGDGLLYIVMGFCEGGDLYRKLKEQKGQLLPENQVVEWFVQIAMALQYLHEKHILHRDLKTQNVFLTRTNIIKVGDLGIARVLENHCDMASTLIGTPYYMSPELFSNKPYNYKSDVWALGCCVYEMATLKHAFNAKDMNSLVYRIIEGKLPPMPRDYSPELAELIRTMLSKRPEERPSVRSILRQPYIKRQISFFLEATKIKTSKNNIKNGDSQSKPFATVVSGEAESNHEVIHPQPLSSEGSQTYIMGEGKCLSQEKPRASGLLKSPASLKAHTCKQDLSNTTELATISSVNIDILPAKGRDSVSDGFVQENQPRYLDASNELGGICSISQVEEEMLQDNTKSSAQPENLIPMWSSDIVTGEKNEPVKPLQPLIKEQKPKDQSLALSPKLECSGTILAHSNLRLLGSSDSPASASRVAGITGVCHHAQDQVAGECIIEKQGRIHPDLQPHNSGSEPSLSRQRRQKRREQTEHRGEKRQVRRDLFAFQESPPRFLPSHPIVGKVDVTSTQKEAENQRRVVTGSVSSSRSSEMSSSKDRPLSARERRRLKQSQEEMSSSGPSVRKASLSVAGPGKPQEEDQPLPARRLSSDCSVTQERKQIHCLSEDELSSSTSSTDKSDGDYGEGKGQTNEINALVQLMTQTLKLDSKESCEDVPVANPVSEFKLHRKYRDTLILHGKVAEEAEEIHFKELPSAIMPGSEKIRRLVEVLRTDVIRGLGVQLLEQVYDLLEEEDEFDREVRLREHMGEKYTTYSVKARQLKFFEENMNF
T8 sequence (Q32MK0 whole entry): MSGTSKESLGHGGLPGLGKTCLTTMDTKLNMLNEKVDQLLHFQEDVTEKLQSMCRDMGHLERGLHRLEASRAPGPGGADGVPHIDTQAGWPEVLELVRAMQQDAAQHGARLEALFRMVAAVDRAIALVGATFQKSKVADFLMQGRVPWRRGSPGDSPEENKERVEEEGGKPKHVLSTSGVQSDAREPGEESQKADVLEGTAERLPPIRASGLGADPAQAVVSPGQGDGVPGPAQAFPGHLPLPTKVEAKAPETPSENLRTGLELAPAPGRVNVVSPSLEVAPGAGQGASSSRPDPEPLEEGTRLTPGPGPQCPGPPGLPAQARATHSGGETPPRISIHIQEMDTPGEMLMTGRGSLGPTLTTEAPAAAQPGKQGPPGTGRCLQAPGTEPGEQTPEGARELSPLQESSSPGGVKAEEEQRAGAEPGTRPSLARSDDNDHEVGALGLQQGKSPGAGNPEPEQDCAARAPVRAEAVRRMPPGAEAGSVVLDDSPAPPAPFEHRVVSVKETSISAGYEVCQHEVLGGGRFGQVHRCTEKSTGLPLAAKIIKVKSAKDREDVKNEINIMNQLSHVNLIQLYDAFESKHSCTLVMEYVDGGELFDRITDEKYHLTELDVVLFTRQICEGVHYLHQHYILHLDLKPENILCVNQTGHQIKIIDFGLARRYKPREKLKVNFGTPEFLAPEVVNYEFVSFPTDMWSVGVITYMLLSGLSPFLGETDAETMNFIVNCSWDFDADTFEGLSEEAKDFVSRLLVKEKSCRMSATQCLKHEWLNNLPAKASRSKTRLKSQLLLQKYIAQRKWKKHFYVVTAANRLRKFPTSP

Row | Compound | inhibition at 1 µM (GRK5) | inhibition at 1 µM (CK2_alpha1) | inhibition at 1 µM (EGFR) | inhibition at 1 µM (MYLK(smMLCK)) | inhibition at 1 µM (IRAK1) | inhibition at 1 µM (Bmx) | inhibition at 1 µM (CDK8/cyclinC) | inhibition at 1 µM (CaMKI) | inhibition at 1 µM (MKK6) | inhibition at 1 µM (LRRK2) | inhibition at 1 µM (ERN1) | inhibition at 1 µM (MAPKAPK2) | inhibition at 1 µM (MEKK2) | inhibition at 1 µM (NEK4) | inhibition at 1 µM (MST1) | inhibition at 1 µM (ACVR2B) | inhibition at 1 µM (ErbB2) | inhibition at 1 µM (KHS1) | inhibition at 1 µM (NEK9) | inhibition at 1 µM (STK16) | also measured
1 | CCOC(=O)Nc1cccc2c(Oc3ncccc3-c3ccnc(N[C@H]4CCCNC4)n3)c(C)ccc12 [G-1749] | -3% | 0.5% | -6% | 1.5% | 9% | -4% | 2.5% | -10% | -3.5% | -3.5% | 99.5% | 7.5% | -0.5% | 6% | 1% | 18.5% | 7.5% | 29.5% | -3% | -5.5% | inhibition at 1 µM (FGFR4): 7.5%; inhibition at 1 µM (AKT2): 6%; inhibition at 1 µM (SIK2): -16.5%; inhibition at 1 µM (MYLK3(caMLCK)): 10.5%; inhibition at 1 µM (PAK4): 0%
2 | CC#CC(=O)Nc1cccc2c(Oc3ncccc3-c3ccnc(N[C@H]4CCCNC4)n3)c(C)ccc12 [G-7658] | -3% | 0% | -9% | 6% | 11.5% | -4.5% | 2% | -2.5% | -2% | 8.5% | 106% | 1% | 1% | 5.5% | -0.5% | 8.5% | 3.5% | 18% | -0.5% | -9% | inhibition at 1 µM (FGFR4): 9%; inhibition at 1 µM (AKT2): 4%; inhibition at 1 µM (SIK2): 6%; inhibition at 1 µM (MYLK3(caMLCK)): 4.5%; inhibition at 1 µM (PAK4): 0%
